Measured values taken from patent publication US10316035B2, “Triazolopyridine inhibitors of myeloperoxidase” (BRISTOL-MYERS SQUIBB COMPANY, priority 2015, dated 2019).
pIC50: −log10 of the molar value. Structures can show the parent of a compound that is named as a salt.

biological target: T1, myeloperoxidase (MPO) (Homo sapiens, UniProt P05164); test: MPO peroxidation assay (Amplex Red assay); format: biochemical; settings: not given
T1 sequence (P05164 49-745): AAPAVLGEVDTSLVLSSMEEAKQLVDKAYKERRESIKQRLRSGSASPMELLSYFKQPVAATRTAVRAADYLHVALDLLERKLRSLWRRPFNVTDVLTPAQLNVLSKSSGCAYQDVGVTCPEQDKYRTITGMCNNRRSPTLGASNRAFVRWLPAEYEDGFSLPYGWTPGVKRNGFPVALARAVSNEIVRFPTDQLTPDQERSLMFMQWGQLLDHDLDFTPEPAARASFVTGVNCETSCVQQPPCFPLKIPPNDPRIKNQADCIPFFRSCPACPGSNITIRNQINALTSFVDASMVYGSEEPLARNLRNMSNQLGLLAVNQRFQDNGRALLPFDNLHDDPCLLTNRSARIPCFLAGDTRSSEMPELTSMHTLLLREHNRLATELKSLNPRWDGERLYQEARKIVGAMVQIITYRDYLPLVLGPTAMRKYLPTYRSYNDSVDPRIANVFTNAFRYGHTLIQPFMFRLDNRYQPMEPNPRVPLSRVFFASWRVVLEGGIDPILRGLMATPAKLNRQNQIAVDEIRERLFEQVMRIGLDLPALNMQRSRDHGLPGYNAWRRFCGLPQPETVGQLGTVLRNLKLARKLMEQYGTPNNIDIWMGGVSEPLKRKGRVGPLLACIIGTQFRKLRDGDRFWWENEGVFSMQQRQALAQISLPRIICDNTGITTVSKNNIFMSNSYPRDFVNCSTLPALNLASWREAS
Procedure: MPO Peroxidation Assay (Amplex Red Assay)
MPO peroxidation activity was measured in 100 mM KPi (pH 7.4) by utilizing the non-fluorescent reagent Amplex Red (Invitrogen catalog # A12222) which can be oxidized to the highly fluorescent resorufin. Amplex Red is oxidized by the peroxidase action of MPO to resorufin. Reactions were carried out in 50 μL total volume by adding a 25 μL mixture of 200 pM myeloperoxidase and 40 nM H2O2(Sigma #349887) to 100 nL inhibitor in 100% DMSO in a 384 well Perkin Elmer Optiplate. Enzyme and compound were preincubated for ten minutes at room temperature.
After the ten minute preincubation, 25 μL of an Amplex Red mixture containing 200 μM Amplex Red and 10 mM H2O2 was added to the plate. Kinetic determinations were carried out immediately on a Perkin Elmer Envision (15 minute kinetic read, Ex: 535 nm, Em: 590 nm).
IC50 values were calculated by determining the slope of the linear portion of the kinetic trace ([…]), and using that calculated slope to determine % inhibition occurring at each concentration of inhibitor using the following equation:
[formula] where A=minimal Y value (activity level of inhibited sample), B=maximal Y value (activity level of uninhibited sample), C=Log IC50, D=Hill Slope, x=concentration of inhibitor. MPO Chlorination Assay (APF Assay)

Row | pIC50 | Structure (SMILES)
1 | 7.00 to 9.00 | Cc1c(COc2cc(N)nc3[nH]nnc23)cccc1-c1ccn(C)n1 [Example 81, 7-(2-Methyl-3-(1-methyl-1H-pyrazol-3-yl)benzyloxy)-3H-[1,2,3]triazolo[4,5-b]pyridin-5-amine]
2 | 7.00 to 9.00 | Nc1cc(OCc2cccc(Cl)c2)c2nn[nH]c2n1 [Example 10, 7-(3-Chlorobenzyloxy)-3H-[1,2,3]triazolo[4,5-b]pyridin-5-amine]

same assay, conditions: MPO peroxidation, potency range class; read-out: Amplex Red IC50

Row | pIC50 | Structure (SMILES)
3 | 7.00 to 9.00 | Nc1cc(OCc2ccc(-n3cnc(-c4ccccc4)c3)cc2OC(F)(F)F)c2nn[nH]c2n1 [Example 260, 7-((4-(4-phenyl-1H-imidazol-1-yl)-2-(trifluoromethoxy)benzyl)oxy)-3H-[1,2,3] triazolo[4,5-b]pyridin-5-amine]
4 | 7.00 to 9.00 | Nc1ccc(-c2cc(F)c(COc3cc(N)nc4[nH]nnc34)c(F)c2)cn1 [Example 337, 7-((4-(6-aminopyridin-3-yl)-2,6-difluorobenzyl)oxy)-3H-[1,2,3]triazolo[4,5-b] pyridin-5-amine]
5 | 6.00 to 7.00 | CS(=O)(=O)c1cc(-n2ccnc2)ccc1COc1cc(N)nc2[nH]nnc12 [Example 280, 7-((4-(1H-imidazol-1-yl)-2-(methylsulfonyl)benzyl)oxy)-3H-[1,2,3]triazolo[4,5-b] pyridin-5-amine]
6 | 7.00 to 9.00 | Nc1cc(OCc2c(F)ccc(-c3ccc(N4CCOCC4)nc3)c2Cl)c2nn[nH]c2n1 [Example 342, 7-((2-chloro-6-fluoro-3-(6-morpholinopyridin-3-yl)benzyl)oxy)-3H-[1,2,3]triazolo[4,5-b] pyridin-5-amine]
7 | 6.00 to 7.00 | COc1ccc(-c2cccc(COc3cc(N)nc4[nH]nnc34)c2)c(F)c1 [Example 64, 7-((2′-Fluoro-4′-methoxybiphenyl-3-yl)methoxy)-3H-[1,2,3]triazolo[4,5-b]pyridin-5-amine]
8 | 7.00 to 9.00 | COc1ccc(-c2cccc(F)c2)cc1COc1cc(N)nc2[nH]nnc12 [Example 66, 7-((3′-Fluoro-4-methoxybiphenyl-3-yl)methoxy)-3H-[1,2,3]triazolo[4,5-b]pyridin-5-amine]
9 | 7.00 to 9.00 | Nc1cc(OCc2ccc(C(=O)NC3CCCCC3)cc2Cl)c2nn[nH]c2n1 [Example 221, 4-((5-amino-3H-[1,2,3]triazolo[4,5-b]pyridin-7-yloxy)methyl)-3-chloro-N-cyclohexylbenzamide]
10 | 6.00 to 7.00 | Nc1cc(OCc2ccc3ccccc3c2)c2nn[nH]c2n1 [Example 147, 7-(Naphthalen-2-ylmethoxy)-3H-[1,2,3]triazolo[4,5-b]pyridin-5-amine]
11 | 7.00 to 9.00 | Nc1cc(OCc2ccc(-c3cccnc3)cc2OC(F)(F)F)c2nn[nH]c2n1 [Example 285, 7-((4-(Pyridin-3-yl)-2-(trifluoromethoxy)benzyl)oxy)-3H-[1,2,3]triazolo[4,5-b]pyridin-5-amine]
12 | 7.00 to 9.00 | Nc1cc(OCc2cccc(-n3cnc(C(F)F)n3)c2)c2nn[nH]c2n1 [Example 45, 7-(3-(3-(Difluoromethyl)-1H-1,2,4-triazol-1-yl)benzyloxy)-3H-[1,2,3]triazolo[4,5-b]pyridin-5-amine]
13 | 7.00 to 9.00 | CC(=O)N1CCN(c2ccc(-c3ccc(COc4cc(N)nc5[nH]nnc45)c(C#N)c3)cn2)CC1 [Example 318, 5-(6-(4-acetylpiperazin-1-yl)pyridin-3-yl)-2-(((5-amino-3H-[1,2,3]triazolo[4,5-b]pyridin-7-yl)oxy)methyl) benzonitrile]
14 | 6.00 to 7.00 | Nc1cc(OCc2cc(C(=O)N(CCO)Cc3ccccc3)ccc2Cl)c2nn[nH]c2n1 [Example 183, 3-((5-amino-3H-[1,2,3]triazolo [4,5-b]pyridin-7-yloxy)methyl)-N-benzyl-4-chloro-N-(2-hydroxyethyl)benzamide]
15 | 6.00 to 7.00 | Nc1cc(OCc2ccccc2S(N)(=O)=O)c2nn[nH]c2n1 [Example 230, 2-(((5-Amino-3H-[1,2,3]triazolo[4,5-b]pyridin-7-yl)oxy)methyl)benzenesulfonamide, TFA]
16 | 7.00 to 9.00 | Nc1cc(OCc2ccc(-c3ccc(N4CCOCC4)nc3)cc2OC(F)(F)F)c2nn[nH]c2n1 [Example 303, 7-((4-(6-morpholinopyridin-3-yl)-2-(trifluoromethoxy)benzyl)oxy)-3H-[1,2,3] triazolo[4,5-b]pyridin-5-amine]
17 | 7.00 to 9.00 | Nc1cc(OCc2ccc(Br)cc2)c2nn[nH]c2n1 [Example 106, 7-(4-Bromobenzyloxy)-3H-[1,2,3]triazolo[4,5-b]pyridin-5-amine]
18 | 7.00 to 9.00 | CN(Cc1ccccc1)C(=O)c1ccc(COc2cc(N)nc3[nH]nnc23)c(Cl)c1 [Example 204, 4-((5-amino-3H-[1,2,3]triazolo[4,5-b]pyridin-7-yloxy)methyl)-N-benzyl-3-chloro-N-methylbenzamide]
19 | 6.00 to 7.00 | Nc1cc(OCc2cc(C(=O)NC3CCC(O)CC3)ccc2F)c2nn[nH]c2n1 (centres unmarked) [Example 163]
20 | 6.00 to 7.00 | CC(=O)Nc1cccc(C(C)Oc2cc(N)nc3[nH]nnc23)c1 (centres unmarked) [Example 144, N-(3-(1-(5-Amino-3H-[1,2,3]triazolo[4,5-b]pyridin-7-yloxy)ethyl)phenyl)acetamide]
21 | 7.00 to 9.00 | Nc1cc(OCc2ccc(F)cc2F)c2nn[nH]c2n1 [Example 130, 7-((2,4-Difluorobenzyl)oxy)-3H-[1,2,3]triazolo[4,5-b]pyridin-5-amine]
22 | 6.00 to 7.00 | Nc1cc(OCc2cccc(-c3ccc(C(=O)Nc4ccccc4)cc3)c2)c2nn[nH]c2n1 [Example 104, 3′-((5-Amino-3H-[1,2,3]triazolo[4,5-b]pyridin-7-yloxy)methyl)-N-phenylbiphenyl-4-carboxamide]
23 | 7.00 to 9.00 | CN(C)CCNC(=O)c1ccc(COc2cc(N)nc3[nH]nnc23)c(Cl)c1 [Example 202, 4-((5-amino-3H-[1,2,3]triazolo[4,5-b]pyridin-7-yloxy)methyl)-3-chloro-N-(2-(dimethylamino)ethyl) benzamide]
24 | 7.00 to 9.00 | N#Cc1cc(-c2ccc(C3CC3)nc2)ccc1COc1cc(N)nc2[nH]nnc12 [Example 316, 2-(((5-amino-3H-[1,2,3]triazolo[4,5-b]pyridin-7-yl)oxy)methyl)-5-(6-cyclopropylpyridin-3-yl)benzonitrile]
25 | 6.00 to 7.00 | CNS(=O)(=O)c1ccccc1COc1cc(N)nc2[nH]nnc12 [Example 229, 2-(((5-Amino-3H-[1,2,3]triazolo[4,5-b]pyridin-7-yl)oxy)methyl)-N-methylbenzenesulfonamide, TFA]
26 | 6.00 to 7.00 | CN(C)C(=O)c1ccc(Cl)c(COc2cc(N)nc3[nH]nnc23)c1 [Example 185, 3-((5-amino-3H-[1,2,3]triazolo [4,5-b]pyridin-7-yloxy)methyl)-4-chloro-N,N-dimethylbenzamide]
27 | 7.00 to 9.00 | Nc1cc(OCc2cc(C(=O)NCc3ccccc3)ccc2F)c2nn[nH]c2n1 [Example 47, 3-((5-Amino-3H-[1,2,3]triazolo[4,5-b]pyridin-7-yloxy)methyl)-N-benzyl-4-fluorobenzamide]
28 | 7.00 to 9.00 | CS(=O)(=O)c1cccc(Cl)c1COc1cc(N)nc2[nH]nnc12 [Example 225, 7-(2-Chloro-6-(methylsulfonyl)benzyloxy)-3H-[1,2,3]triazolo[4,5-b]pyridin-5-amine]
29 | 7.00 to 9.00 | Cc1cc(CNC(=O)c2ccc(COc3cc(N)nc4[nH]nnc34)c(Cl)c2)n(C)n1 [Example 207, 4-((5-amino-3H-[1,2,3]triazolo[4,5-b]pyridin-7-yloxy)methyl)-3-chloro-N-((1,3-dimethyl-1H-pyrazol-5-yl)methyl)benzamide]
30 | 7.00 to 9.00 | N#Cc1cnn(-c2ccc(COc3cc(N)nc4[nH]nnc34)c(OC(F)(F)F)c2)c1 [Example 270, 1-(4-(((5-amino-3H-[1,2,3]triazolo[4,5-b]pyridin-7-yl)oxy)methyl)-3-(trifluoromethoxy)phenyl)-1H-pyrazole-4-carbonitrile]
31 | 7.00 to 9.00 | Nc1cc(OCc2ccc(-n3cnc(CO)c3)cc2OC(F)(F)F)c2nn[nH]c2n1 [Example 265, (1-(4-(((5-amino-3H-[1,2,3]triazolo[4,5-b]pyridin-7-yl)oxy)methyl)-3-(trifluoromethoxy)phenyl)-1H-imidazol-4-yl)methanol]

Row | Structure (SMILES) | pIC50
32 | CCC(F)(F)C(Oc1cc(N)nc2[nH]nnc12)c1ccccc1OC (racemic) [Example 136, 7-(2,2-Difluoro-1-(2-methoxyphenyl)butoxy)-3H-[1,2,3]triazolo[4,5-b]pyridin-5-amine] | 6.00 to 7.00
